Test results from PMC6335420, “The cell cycle regulator GpsB functions as cytosolic adaptor for multiple cell wall enzymes” (Nature Communications, 2019).
Residues, ends and D or L forms follow the SMILES beside them. *: point of attachment. X1 = CN(C)c1ccc2c(-c3ccc(N4C(=O)CC(*)C4=O)cc3C(=O)[O-])c3ccc(=[N+](C)C)cc-3oc2c1

Columns and labels:
[1] = test system: GpsB; test: Displacement of pre-bound PBP peptides from GpsB; format: binding; settings: 100-fold molar excess of free L-arginine
[2] = molecular target: T1, SpGpsB1-63Asp33Ala (Streptococcus pneumoniae, UniProt Q8DR57, D33A); test: Fluorescence polarisation binding to SpGpsB1-63Asp33Ala; settings: FP, SpGpsB1-63Asp33Ala relative to wild-type SpGpsB1-63
T1 construct: His6 (N, cleaved yes); made in house; host or cells: E. coli BL21(DE3)
T1 sequence (Q8DR57 1-63 D33A): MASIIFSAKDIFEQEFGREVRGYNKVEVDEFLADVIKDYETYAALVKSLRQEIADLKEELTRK
Excerpt: (§1) 75 the BsGpsB5-64:BsPBP11-17 complex.

[3] = molecular target: T2, SpGpsB1-63 (Streptococcus pneumoniae, UniProt Q8DR57); test: Fluorescence polarisation binding to SpGpsB1-63; settings: FP
T2 construct: The SpGpsB1-63 expression construct (pET28SpGpsB1-63) was prepared by PCR amplification of gpsB; His6 (N, cleaved yes); made in house; host or cells: E. coli BL21(DE3)
T2 sequence (Q8DR57 1-63): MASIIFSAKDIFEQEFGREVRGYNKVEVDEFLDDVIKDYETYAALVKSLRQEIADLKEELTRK
Excerpt: as §1

[4] = test system: SpGpsB; test: BACTH interaction with SpGpsB; format: cell-based, Streptococcus pneumoniae; settings: E. coli BTH101, 30 °C, 36-40 h
Excerpt: The target genes were amplified by the PCR from S. pneumoniae D39 chromosomal DNA. PCR fragments for pbp2a, mreC, pbp1a, pbp2x and pbp2b were purified, digested with appropriate restriction enzymes and cloned into the corresponding sites of the pKT25/pUT18C vectors to generate plasmids encoding the corresponding hybrid proteins fused at the C-terminal ends of the T25 and T18 fragments, respectively. Plasmids pKNT25-gpsB/pUT18-gpsB, pKNT25-stkP/pUT18-stkP and pKNT25-ezrA/pUT18-ezrA were already constructed. The mutated and truncated gpsB and pbp2a alleles were amplified from their respective DNA templates and the corresponding PCR products cloned into the corresponding sites of the BACTH vectors as described above for the wild-type alleles. E. coli DH5α transformants were selected on LB agar plates containing ampicillin (100 μg^−1mL^−1) or kanamycin (50 μg^−1mL^−1) and 0.4% glucose to repress leaky expression.
BACTH experiments, each pair of plasmids was co-transformed into the E. coli cya- strain BTH101 and co-transformation mixtures were spotted onto LB agar plates supplemented with ampicillin ([…]), kanamycin ([…]) and X-Gal (40 μg^−1mL^−1), followed by incubation at 30 °C. Plates were inspected and photographed after 24 and 40 h. Plasmid pairs pKNT25/pUT18 and pKT25-zip/pUT18C-zip were used as negative and positive controls, respectively. […]

Q: Which “displacement of pre-bound PBP peptides from GpsB” value [1] does the source give for `N=C(N)NCCC[C@H](N)C(=O)O` [L-arginine] here?
A: does not displace pre-bound PBP peptides from GpsB

Q: How did the “reduction in affinity on GpsB mutation” value [2] turn out when `CC[C@H](C)[C@H](NC(=O)[C@@H]1CCCN1C(=O)[C@H](CSC1CC(=O)N(c2ccc(-c3c4ccc(=[N+](C)C)cc-4oc4cc(N(C)C)ccc34)c(C(=O)[O-])c2)C1=O)NC(=O)[C@@H](NC(=O)[C@H](CCC(N)=O)NC(=O)[C@H](C)NC(=O)[C@H](CC(C)C)NC(=O)[C@H](CCCCN)NC(=O)[C@H](CCCCN)NC(=O)[C@H](CCCNC(=N)N)NC(=O)[C@H](CC(=O)O)NC(=O)[C@H](CO)NC(=O)[C@H](CCCNC(=N)N)NC(=O)[C@H](CO)NC(=O)[C@H](CCCNC(=N)N)NC(=O)[C@H](CCCNC(=N)N)NC(=O)[C@H](CC(C)C)NC(=O)[C@@H](NC(=O)[C@@H](NC(=O)[C@H](CO)NC(=O)[C@H](CC(=O)O)NC(=O)[C@H](CO)NC(=O)[C@H](CC(=O)O)NC(=O)[C@H](CCSC)NC(=O)[C@H](CO)NC(=O)CN)[C@@H](C)O)[C@@H](C)CC)C(C)C)C(=O)O` (stereo partly shown) [TAMRA-SpPBP2a23-45] (H-GSMDSDSTILRRSRSDRKKLAQVC(X1)PI-OH) was run?
A: ~ 40 fold

Q: What about the “binding to SpGpsB1-63 (in words)” value [3] of the same molecule?
A: interacts

B1: SpPBP1a: S. pneumoniae class A PBP1a (protein)
chain: MNKPTILRLIKYLSISFLSLVIAAIVLGGGVFFYYVSKAPSLSESKLVATTSSKIYDNKNQLIADLGSERRVNAQANDIPTDLVKAIVSIEDHRFFDHRGIDTIRILGAFLRNLQSNSLQGGSALTQQLIKLTYFSTSTSDQTISRKAQEAWLAIQLEQKATKQEILTYYINKVYMSNGNYGMQTAAQNYYGKDLNNLSLPQLALLAGMPQAPNQYDPYSHPEAAQDRRNLVLSEMKNQGYISAEQYEKAVNTPITDGLQSLKSASNYPAYMDNYLKEVINQVEEETGYNLLTTGMDVYTNVDQEAQKHLWDIYNTDEYVAYPDDELQVASTIVDVSNGKVIAQLGARHQSSNVSFGINQAVETNRDWGSTMKPITDYAPALEYGVYESTATIVHDEPYNYPGTNTPVYNWDRGYFGNITLQYALQQSRNVPAVETLNKVGLNRAKTFLNGLGIDYPSIHYSNAISSNTTESDKKYGASSEKMAAAYAAFANGGTYYKPMYIHKVVFSDGSEKEFSNVGTRAMKETTAYMMTDMMKTVLSYGTGRNAYLAWLPQAGKTGTSNYTDEEIENHIKTSQFVAPDELFAGYTRKYSMAVWTGYSNRLTPLVGNGLTVAAKVYRSMMTYLSEGSNPEDWNIPEGLYRNGEFVFKNGARSTWSSPAPQQPPSTESSSSSSDSSTSQSSSTTPSTNNSTTTNPNNNTQQSNTTPDQQNQNPQPAQP
modifications: left off: T25 or T18 fragment of adenylate cyclase (vectors pKT25, pUT18C), N-terminal, kept
notes: S. pneumoniae class A PBP1a
Q: B1 was tested. Which “BACTH interaction with SpGpsB” value [4] did it give?
A: interacted
